# In patent US20240398831A1, “COMPOSITIONS COMPRISING SMALL MOLECULE REGULATORS OF TUMOR IMMUNITY AND METHODS OF USING SAME” (Duke University, priority 2021, published 2024):
# Tested on: CD68+ monocytes/TAMs
# Assay: Single cell RNA sequencing of tumor infiltrating immune cells from iBP tumors
# Assay type: in vivo, mouse
# Text: Single Cell RNA sequencing. iBP tumors (three) were pooled and a single cell suspension was isolated. Live tumor infiltrating immune cells (CD45^+ L/D^−) were isolated by cell sorting and resuspended in PBS+0.04% BSA at a concentration of 1000 cells/μL. In total, 10,000 cells were loaded on the 10× Genomics Chromium Controller Single-Cell Instrument (10× Genomics) mixed with reverse transcription reagents along with gel beads and oil to generate single-cell gel beads in emulsions (GEMs). GEM-RT was performed in an Eppendorf Mastercycler Pro (cat #950030020, Eppendorf): 53° C. for 45 min; 85° C. for 5 min; then held at 4° C. After reverse transcription, GEMs were disrupted and the single-stranded cDNA was purified using Dynabeads MyOne Silane beads (cat #37002D, Thermo Fisher Scientific). cDNA was amplified using the Eppendorf Mastercycler Pro (cat #950030020, Eppendorf): 98° C. for 3 min; cycled 11×: 98° C. for 15 s, 67° C. for 20 s, and 72° C. for 1 min; 72° C. for 1 min; held at 4° C. The amplified cDNA product was purified with the SPRIselect Reagent Kit (0.6×SPRI) (cat #B23318, Beckman Coulter). Indexed sequencing libraries were constructed using the reagents in the Chromium Single-Cell 3′ version 3 Library Kit, following these steps: (1) fragmentation, end repair and A-tailing; (2) SPRIselect cleanup; (3) adapter ligation; (4) post ligation cleanup with SPRIselect; (5) sample index PCR; (6) PostindexPCR cleanup. The barcoded sequencing libraries were analyzed using quantitative PCR (cat #KK4824, KAPA Biosystems Library Quantification Kit for Illumina platforms). Sequencing libraries were transferred to the Duke University Center for Genomic and Computational Biology (GCB) and were loaded on a NovaSeq6000 (Illumina) for sequencing.
# scRNA seq data analysis. Sequencing data was de-multiplexed, trimmed, filtered, aligned, and quantified using the Cell Ranger pipeline (10× Genomics). Reads were aligned to CSC mm10 transcriptome and UMI count matrices for each sample was obtained. The Seurat v3.1 package was used to count matrices. For each sample, cells that express <200 or >2000 genes and cells that express >5% of mitochondrial genes were removed. Highly variable genes were identified and used for principal component analysis. Cell subpopulations were identified using the ‘FindNeighbors’ function with first 30 PCs and ‘FindClusters’ function from Seurat R package with default resolution parameters. Cells were then clustered and visualized using uniform manifold approximation and projection (UMAP) (Liu, Int. J. Mol. Sci. 2020, 21, 16). DE Wilcoxon test analysis was used to identify genes that define a cluster using known cell type signatures and genes that differ within clusters between treatments.
# Pseudotime Analysis. To infer the developmental trajectories in the monocyte/macrophage lineages, Monocle3 was used to perform the pseudotime analysis where UMAP coordinates from Seurat were used as input (Cao et al., Nature 2019, 566, 498-502). The graphtest function implemented in Monocle3 was used to find genes that vary with pseudotime where genes with q<0.01 were identified as pseudotime-dependent genes. Cells were divided into four pseudotime blocks (e.g., 0-5, 5-10, 10-15, and 15-21) based on their pseudotime estimate.
# [1] = CD68+ cells, Genes down-regulated upon E2 treatment
# [2] = CD68+ cells, Genes up-regulated upon E2 treatment
substance,measurement,setting,value
17β-estradiol [E2],AA467197 avg_logFC,[1],−1.1474
same,Actg1 avg_logFC,[1],−0.2725
same,Adam8 avg_logFC,[1],−0.5315
same,Arg1 avg_logFC,[1],−1.491
same,Arl4c avg_logFC,[1],−0.3255
same,Ass1 avg_logFC,[1],−0.2981
same,B4galt1 avg_logFC,[1],−0.2593
same,Bhlhe40 avg_logFC,[1],−0.4214
same,Bnip3 avg_logFC,[1],−0.3241
same,Cbl avg_logFC,[1],−0.2587
same,Ccl24 avg_logFC,[1],−1.196
same,Cd44 avg_logFC,[1],−0.3636
same,Cd53 avg_logFC,[1],−0.2831
same,Cdh1 avg_logFC,[1],−0.4682
same,Cish avg_logFC,[1],−0.2878
same,Clec7a avg_logFC,[1],−0.6823
same,Clic4 avg_logFC,[1],−0.2836
same,Cox17 avg_logFC,[1],−0.2516
same,Csrnp1 avg_logFC,[1],−0.2796
same,Cxcl2 avg_logFC,[1],−0.3108
same,Dazap2 avg_logFC,[1],−0.253
same,Ddx3x avg_logFC,[1],−0.2648
same,Dusp5 avg_logFC,[1],−0.2644
same,Emp1 avg_logFC,[1],−0.3016
same,Epb41l2 avg_logFC,[1],−0.2668
same,Ero1l avg_logFC,[1],−0.3681
same,Errfi1 avg_logFC,[1],−0.2612
same,Etv3 avg_logFC,[1],−0.2533
same,Fam129b avg_logFC,[1],−0.2732
same,Gatm avg_logFC,[1],−0.4728
same,Gm13339 avg_logFC,[1],−0.3235
same,Gm42418 avg_logFC,[1],−0.3099
same,Grina avg_logFC,[1],−0.2527
same,Havcr2 avg_logFC,[1],−0.2738
same,Hbegf avg_logFC,[1],−0.2883
same,Hexim1 avg_logFC,[1],−0.2598
same,Hif1a avg_logFC,[1],−0.3016
same,Hilpda avg_logFC,[1],−0.3818
same,Hk2 avg_logFC,[1],−0.3161
same,Hnrnpa2b1 avg_logFC,[1],−0.2507
same,Hnrnpu avg_logFC,[1],−0.2502
same,Id2 avg_logFC,[1],−0.3235
same,Ifi202b avg_logFC,[1],−0.4589
same,Ighm avg_logFC,[1],−0.2694
same,Il1rn avg_logFC,[1],−0.7087
same,Itgax avg_logFC,[1],−0.2718
same,Jak2 avg_logFC,[1],−0.3294
same,Lars2 avg_logFC,[1],−0.2737
same,Lcp1 avg_logFC,[1],−0.279
same,Lyz1 avg_logFC,[1],−0.3109
same,Mafb avg_logFC,[1],−0.2732
same,Malt1 avg_logFC,[1],−0.4497
same,Mir6236 avg_logFC,[1],−0.4795
same,Mmp14 avg_logFC,[1],−0.4234
same,N4bp1 avg_logFC,[1],−0.2723
same,Nampt avg_logFC,[1],−0.2539
same,Nfkb1 avg_logFC,[1],−0.3187
same,Pabpc1 avg_logFC,[1],−0.3065
same,Plek avg_logFC,[1],−0.3121
same,Prkcd avg_logFC,[1],−0.4952
same,Ptgs2 avg_logFC,[1],−0.2589
same,Qsox1 avg_logFC,[1],−0.2981
same,Rbbp6 avg_logFC,[1],−0.2693
same,Rbms1 avg_logFC,[1],−0.306
same,Rbpj avg_logFC,[1],−0.2858
same,Retnla avg_logFC,[1],−1.013
same,Rgcc avg_logFC,[1],−0.3356
same,Rhob avg_logFC,[1],−0.3443
same,Rnf19b avg_logFC,[1],−0.4071
same,Rpl23a avg_logFC,[1],−0.3395
same,Scd2 avg_logFC,[1],−0.3267
same,Sdc4 avg_logFC,[1],−0.5729
same,Slc2a1 avg_logFC,[1],−0.2726
same,Slc7a2 avg_logFC,[1],−0.4582
same,Slc7a11 avg_logFC,[1],−0.3846
same,Slpi avg_logFC,[1],−0.3695
same,Smox avg_logFC,[1],−0.2743
same,Spp1 avg_logFC,[1],−0.5367
same,Srgn avg_logFC,[1],−0.3751
same,Tapbp avg_logFC,[1],−0.2542
same,Tes avg_logFC,[1],−0.2663
same,Tgfbi avg_logFC,[1],−0.2874
same,Tgm2 avg_logFC,[1],−0.345
same,Timp1 avg_logFC,[1],−0.3922
same,Ywhaz avg_logFC,[1],−0.3465
same,Zeb2 avg_logFC,[1],−0.2704
same,Zfp36l2 avg_logFC,[1],−0.2732
same,AF251705 avg_logFC,[2],0.2639
same,Al607873 avg_logFC,[2],0.2786
same,Apoe avg_logFC,[2],0.569
same,Arl5c avg_logFC,[2],0.2656
same,Bst2 avg_logFC,[2],0.2961
same,C1qa avg_logFC,[2],0.4214
same,C1qb avg_logFC,[2],0.5188
same,C1qc avg_logFC,[2],0.4208
same,Ccrl2 avg_logFC,[2],0.3263
same,Cd14 avg_logFC,[2],0.2715
same,Cd48 avg_logFC,[2],0.2715
same,Cfh avg_logFC,[2],0.2625
same,Chil3 avg_logFC,[2],1.253
same,Ckb avg_logFC,[2],0.2847
same,Cst3 avg_logFC,[2],0.3446
same,Dpep2 avg_logFC,[2],0.3725
same,Fcer1g avg_logFC,[2],0.3137
same,Fcrls avg_logFC,[2],0.5638
same,Gdf3 avg_logFC,[2],0.2851
same,Gm10076 avg_logFC,[2],0.3757
same,Gm10222 avg_logFC,[2],0.2577
same,H2-D1 avg_logFC,[2],0.2808
same,Hint1 avg_logFC,[2],0.2548
same,Id3 avg_logFC,[2],0.2699
same,Ifi27l2a avg_logFC,[2],0.5245
same,Ifitrn2 avg_logFC,[2],0.374
same,Ifitrn3 avg_logFC,[2],0.2755
same,Itga6 avg_logFC,[2],0.3437
same,Itm2b avg_logFC,[2],0.4104
same,Lrg1 avg_logFC,[2],0.3663
same,Ly6c2 avg_logFC,[2],0.2657
same,Lyz2 avg_logFC,[2],0.2885
same,Mgl2 avg_logFC,[2],0.5712
same,Mt1 avg_logFC,[2],0.4006
same,Pf4 avg_logFC,[2],0.4715
same,Rgs10 avg_logFC,[2],0.2599
same,Rpl3 avg_logFC,[2],0.278
same,Rpl9 avg_logFC,[2],0.2585
same,Rpl21 avg_logFC,[2],0.2567
same,Rpl29 avg_logFC,[2],0.2548
same,Rplp0 avg_logFC,[2],0.333
same,Rps2 avg_logFC,[2],0.2742
same,Rps11 avg_logFC,[2],0.2704
same,Rps20 avg_logFC,[2],0.2922
same,S100a8 avg_logFC,[2],0.7858
same,Thbs1 avg_logFC,[2],0.3189
same,Trem2 avg_logFC,[2],0.4831
same,Tspo avg_logFC,[2],0.2604
same,Tmem176 avg_logFC,"CD68+ cells, Genes up-regulated upon E2 treatment, first Tmem176 line",0.3209
same,Tmem176 avg_logFC,"CD68+ cells, Genes up-regulated upon E2 treatment, second Tmem176 line",0.3394
same,"inflammation/chemokine genes (Itm2b, C1q) and M2 macrophage markers (Tspo, Vegfa, Tgm2) in CD68+ cells",E2 group,upregulated
same,"TAM markers (Trem2, Apoe, Thbs1, Spp1) in CD68+ monocyte/TAM population",E2 treated tumors,expressed
same,CD68+ monocytes/TAMs clusters,E2 vs placebo,expansion and significant changes in gene expression
same,cluster 1 (M1-like TAMs),E2 vs placebo,remained unchanged
same,cluster 3 (inflammatory monocytes),E2 vs placebo,increased
same,cluster 8,E2 vs placebo,expansion
same,cluster 9 (immune-suppressive phenotype),E2 vs placebo,significant expansion
same,cluster 15 (M1-like TAMs),E2 vs placebo,decreased
same,cluster 16 (patrolling tissue resident monocytes),E2 vs placebo,increased
same,cluster 22,E2 vs placebo,remained unchanged
same,cluster 30,E2 vs placebo,expansion
same,percentage of Ly6C^hi monocytes (cluster 2),E2 vs placebo,remained the same
